In assay [1] the test system is SK-N-SH.
The target in assay [2] is T1, Muscarinic acetylcholine receptor (Rattus norvegicus) (UniProt P08482+P08483+P08485+P08911+P10980). The note with it: 0.1 uM.
For assay [3], the target named is T1, Muscarinic acetylcholine receptor (Rattus norvegicus). The note with it: 1.0 uM.
For assay [4], the target named is T2, Muscarinic acetylcholine receptor M1 (Rattus norvegicus, UniProt P08482).
T2 sequence (P08482 whole entry): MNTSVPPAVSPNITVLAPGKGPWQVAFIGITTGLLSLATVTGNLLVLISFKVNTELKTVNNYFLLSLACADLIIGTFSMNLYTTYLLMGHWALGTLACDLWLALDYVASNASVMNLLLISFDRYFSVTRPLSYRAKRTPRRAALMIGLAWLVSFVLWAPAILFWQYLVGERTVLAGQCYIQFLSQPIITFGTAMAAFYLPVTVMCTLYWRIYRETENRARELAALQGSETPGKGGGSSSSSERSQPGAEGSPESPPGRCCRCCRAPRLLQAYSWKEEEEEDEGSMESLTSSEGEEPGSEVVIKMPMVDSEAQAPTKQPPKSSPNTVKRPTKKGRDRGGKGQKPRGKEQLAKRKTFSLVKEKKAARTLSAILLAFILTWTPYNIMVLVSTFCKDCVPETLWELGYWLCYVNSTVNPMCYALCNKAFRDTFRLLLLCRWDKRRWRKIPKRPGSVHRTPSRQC
Description: Compound was evaluated for the displacement of the muscarinic QNB in a genetically transformed rat cell line (m1c2) transfected with cloned m1 receptors (m1-QNBm1c2)

Assay [5] has as its target T3, Muscarinic acetylcholine receptor M2 (Rattus norvegicus, UniProt P10980).
T3 sequence (P10980 whole entry): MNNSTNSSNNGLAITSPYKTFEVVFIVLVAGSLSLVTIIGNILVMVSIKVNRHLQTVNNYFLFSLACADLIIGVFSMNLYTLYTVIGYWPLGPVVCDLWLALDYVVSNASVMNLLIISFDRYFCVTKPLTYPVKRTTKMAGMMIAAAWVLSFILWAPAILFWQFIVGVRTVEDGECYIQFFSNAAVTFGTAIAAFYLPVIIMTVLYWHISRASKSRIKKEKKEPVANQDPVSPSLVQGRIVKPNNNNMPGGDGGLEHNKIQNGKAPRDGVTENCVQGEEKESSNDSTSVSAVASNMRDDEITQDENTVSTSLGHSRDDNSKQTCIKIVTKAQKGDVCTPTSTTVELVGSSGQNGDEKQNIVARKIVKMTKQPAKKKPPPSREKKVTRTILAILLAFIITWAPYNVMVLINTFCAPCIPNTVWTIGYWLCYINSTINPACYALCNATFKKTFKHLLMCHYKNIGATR
Briefly: biochemical.
Description: Compound was evaluated for the displacement of the muscarinic QNB in rat heart homogenate containing the pharmacologic M2 receptor (M2-QNB heart)

Assay [6] concerns the target Muscarinic acetylcholine receptor.
Description: Compound was evaluated for its ability to displace muscarinic antagonist [3H]cis-methyldioxolane in rat cortical tissue (RQNB binding assay), at 1.0 uM concentration
The target is the same in assay [7]. This is another data set of the same source.
Description: Compound was evaluated for its ability to displace muscarinic agonist [3H]quinuclidinyl benzilate in rat cortical tissue (RCMD binding assay), at 0.1 uM concentration
For assay [8], the system named is SK-N-SH. Briefly: Phosphoinositide (PI) turnover was assessed by the ability to stimulate [3H]- inositol phosphate accumulation in human SK-N-SH neuroblastoma cells relative to carbachol. It counts as functional.

The compound `C[N+](C)(C)CCOC(N)=O.[Cl-]` [CARBACHOL] came in with a PI turnover with SK-N-SH [1] of 100%.
For the compound `CN1C(=O)OC[C@@H]1Cc1cncn1C`, the results for the inhibition in assay [2] and in assay [3] were 11% and 2%, respectively.
Regarding `CN1C(=O)OC[C@@H]1Cc1c[nH]cn1`, the inhibition in assay [2] and in assay [3] was 0% each time.
Take `CCCN1C(=O)OC[C@@H]1Cc1c[nH]cn1`: the inhibition (commonly how much of the control response was suppressed) turned out to be 2% in assay [2] and 4% in assay [3].
`CCCN1C(=O)OC[C@@H]1Cc1cn(C)cn1`: the values for the inhibition in assay [2] and in assay [3] were 2% and 10%, respectively.
Taken in the same sequence, the figures for `CCN1C(=O)OC[C@H]1Cc1c[nH]cn1` were 0% and 2%.
Taken in the same sequence, the figures for `CCN1C(=O)OC[C@@H]1Cc1c[nH]cn1` were 4% and 4%.
Taken in the same sequence, the figures for `CCN1C(=O)OC[C@H]1Cc1cn(C)cn1` were 0% and 1%.
`O=C1CCCN1CC#CCN1CCCC1` [OXOTREMORINE]: the half-maximal inhibitory concentration (IC50) (usually the midpoint of a concentration-inhibition curve) came out at 0.36 µM in assay [4] and 0.86 µM in assay [5]. The same compound showed a PI turnover in the assay on SK-N-SH [1] of 33%.
`CCCN1C(=O)OC[C@@H]1Cc1cncn1C`: the IC50 in assay [6] came out at 3300 µM; in assay [7], 73 µM.
Take `CCN1C(=O)OC[C@@H]1Cc1cncn1C`: the IC50 stood at 8.9 µM in assay [6], 12.7 µM in assay [4], 0.043 µM in assay [7] and 30.9 µM in assay [5]. In the assay with SK-N-SH [8], the PI turnover was found to be 16%.
Turning to `CCN1C(=O)OC[C@H]1Cc1cncn1C`, the inhibition in assay [2] is 6%; in assay [3], 0%.

For the origin of these results see ChEMBL document CHEMBL1125978 (Bioorg Med Chem Lett, 1991).
